Assay results published in patent US8642834B2, “Methods for the identification of agents that inhibit mesenchymal-like tumor cells or their formation” (OSI Pharmaceuticals, LLC, priority 2009, dated 2014).
No end group written: not given here.

How the values were obtained:
CFPAC-1 cells [1] = experiment: Inhibition of ligand-induced EMT by JAK or MEK inhibitor; type: cell-based, human; details: JAK inhibitor 0.25 μM
Method: Supernatents were micro-centrifuged at max speed, 4° C. for 10 minutes. […] SDS PAGE was run using a Bis-Tris gel system (Invitrogen NuPAGE) with MOPS buffer (Invitrogen NP0001), transferred onto nitrocellulose using the iBLOT system (Invitrogen) and blocked in PBS-T (0.1% Tween 20), 5% non-fat milk or BSA in guidance with primary Ab supplier requirements. […] Secondary HRP labeled antibodies used were: anti Rabbit IgG HRP (Amersham NA934) 1:5000 dilution; anti Mouse IgG HRP (Sigma A2304) 1:2000 dilution. Membranes were visualized using the Supersignal ELISA Femto Maximum Sensitivity Substrate (Pierce).

pancreatic cancer = details: phase III, first-line, in combination with gemcitabine; cited from earlier work
[2] = tested on: advanced, treatment-refractory NSCLC; details: phase III, monotherapy, patients with advanced; cited from earlier work
CFPAC-1 cells [3] = experiment: Induction of EMT by growth factors and cytokines, E-cadherin and vimentin immunoblotting; type: cell-based, human; details: CFPAC-1 cells treated 7 days with ligand
Method: The CFPAC1 cell line was cultured in DMEM media (Gibco #11960) supplemented with 10% FBS (Sigma), 2 mM L Glutamine (Gibco), at 37° C., 5% CO2. For 7 day treatments, cells were seeded on tissue culture plastic in complete growth media and allowed to attach overnight at cell densities that would provide approximately 60-80% confluence at end of experiment. Ligand and/or inhibitor was added the following day (Day 0) in complete growth media and incubated at 37° C., 5% CO2. Ligand source and concentrations used are as follows: [1] From R&D systems, SDF-1α (stromal derived factor-1 alpha) at 100 ng/ml, TRANCE (TNF-related activation induced cytokine) at 50 ng/ml, FGF1 (fibroblast growth factor acidic) at 10 ng/ml, FGF2 (fibroblast growth factor basic) at 10 ng/ml, BMP4 (bone morphogenetic protein 4) at 100 ng/ml, BMP7 (bone morphogenetic protein 7) at 100 ng/ml, IGF2 (insulin-like growth factor 2) at 100 ng/ml, OSM (Oncostatin M) at 100 ng/ml, NRG1 (Neuregulin-1) at 50 ng/ml, PDGFaa (Platelet derived growth factor a) at 50 ng/ml, PDGFbb (platelet derive growth factor b) at 30 ng/ml, Ang2 (Angiopoeitin 2) at 400 ng/ml, amphiregulin at 100 ng/ml, HMGB 1 (Human high-mobility group box 1 protein) at 50 ng/ml; [2] From Genscript, LIF (Leukemia inhibitory factor) at 20 ng/ml, GM-CSF (Granulocyte macrophage colony stimulating factor) at 25 ng/ml, M-CSF (Macrophage colony stimulating factor) at 50 ng/ml; [3] From Anaspec, PAR1 (Protease activated receptor 1 agonist) at 100 μM; PAR2 (Protease activated receptor 2 agonist; peptide SLIGKV-NH2, Cat. No. 60217-1) at 100 μM; PAR4 (Protease activated receptor […] agonist; peptide AYPGKF-NH2, Cat. No. 60218-1) at 100 μM; [4] From Peprotech, HGF (Hepatocyte Growth Factor) at 100 ng/ml; IL-31 (Interleukin-31) at 50 ng/ml, IL-33 (Interleukin-33) at 50 ng/ml, IL1-a (Interleukin-1 alpha) at 10 ng/ml, CTGF (Connective tissue growth factor) at 20 ng/ml, WISP1 (Wnt-1 inducible signaling pathway protein) at 20 ng/ml, PTHrP ([…] hormone-related protein) at 50 ng/ml, MCP1 (monocyte chemotactic protein-1) at 50 ng/ml; and [5] from Sigma, Fulvestrant at 1 μM. Fresh medium containing ligand and/or inhibitor was added 3-4 days after initial dose, and at Day 7 cells were harvested for western blot analysis.
Cells were harvested by washing once with PBS, and lysing on ice for 10 minutes with scraping (using a Cell Lifter, Corning Inc. #3008) in ice cold RIPA buffer (Sigma R0278) containing Protease inhibitor (Sigma P8340), Phosphatase inhibitors (Sigma P2850, P5726) and 200 μM Sodium Vanadate. Supernatents were micro-centrifuged at max speed, 4° C. for 10 minutes. Protein content was quantitated using the BCA method (Pierce #23225) and samples were normalized to total protein in Laemli buffer and heated at 100° C. for 10 minutes. SDS PAGE was run using a Bis-Tris gel system (Invitrogen NuPAGE) with MOPS buffer (Invitrogen NP0001), transferred onto nitrocellulose using the iBLOT system (Invitrogen) and blocked in PBS-T (0.1% Tween 20), 5% non-fat milk or BSA in guidance with primary Ab supplier requirements. All primary antibodies were incubated overnight at 4° C. in PBS-T (0.1% Tween 20) in either 5% non-fat milk or BSA, diluted to the following working dilutions: anti E Cadherin (Santa Cruz #sc-21791) 1:500 dilution; anti Vimentin (BD Biosciences #550513) 1:2000 dilution;); anti GAPDH HRP conjugate (Santa Cruz sc-25778) 1:1000 dilution; anti β-Actin (Sigma, A5441) 1:10,000 dilution. […]

| Compound | Induction of EMT (E-cadherin down, vimentin up) (CFPAC-1 cells [3]) | other results |
| --- | --- | --- |
| CC(C)(C)c1nc2c3cc[nH]c(=O)c3c3cc(F)ccc3c2[nH]1 [JAK inhibitor] | – | Block of morphology change (CFPAC-1 cells [1]; CFPAC-1 cells treated with OSM 7 days, light microscopy): blocked the morphology change; Block of EMT process (CFPAC-1 cells [1]; OSM-triggered EMT, 7 days, MEK inhibitor 3 μM): could block EMT process |
| C#Cc1cccc(Nc2ncnc3cc(OCCOC)c(OCCOC)cc23)c1 [erlotinib, [6,7-bis(2-methoxyethoxy)-4-quinazolin-4-yl]-(3-ethynylphenyl) amine] | – | Survival (pancreatic cancer): improves survival; Survival, disease progression, lung cancer-related symptoms [2]: significantly prolonged survival, delayed disease progression and delayed worsening of lung cancer-related symptoms |
| AYPGKF-NH2 [PAR4 agonist AYPGKF-NH2, reference compound] | Partial EMT | – |
| IGF2: insulin-like growth factor 2, R&D systems, 100 ng/ml | Partial EMT | – |
| LIF: Leukemia inhibitory factor, Genscript, 20 ng/ml | Partial EMT | – |
| SLIGKV-NH2 (UniProt P55085 37-42, looked up, fragment) [PAR2 agonist SLIGKV-NH2, reference compound] | Partial EMT | – |
